Source: the supplement of paper PMC10307832

What was measured:
Assay in all cases: relative viability (nuclei count vs DMSO), 5 days (fraction); higher = more cells survive
[1] = compound: Cn1nnc2c(C(N)=O)ncn2c1=O [Temozolomide] + CC(=O)Nc1cccc(-n2c(=O)n(C3CC3)c(=O)c3c(Nc4ccc(I)cc4F)n(C)c(=O)c(C)c32)c1 [Trametinib] (partner 0.02 µM)
Procedure, shortened: (§1)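 Values are medians from duplicate plates. Each reflects relative viability, defined as the nuclei count of treated wells over that of vehicle wells. Lung cancer cell lines in 1536-well plates were pin-tool dosed one day after seeding with one drug alone or with a fixed anchor-drug dose plus five library-drug doses (not always all listed) in √10 steps, then fixed, stained and imaged at 4× after 5 days.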

AZD5582 + Foretinib = compound: C[C@@H](C(=O)N[C@@H](C1CCCCC1)C(=O)N2CCC[C@H]2C(=O)N[C@@H]3[C@@H](CC4=CC=CC=C34)OCC#CC#CCO[C@@H]5CC6=CC=CC=C6[C@@H]5NC(=O)[C@@H]7CCCN7C(=O)[C@H](C8CCCCC8)NC(=O)[C@H](C)NC)NC [AZD5582] + COc1cc2c(Oc3ccc(NC(=O)C4(C(=O)Nc5ccc(F)cc5)CC4)cc3F)ccnc2cc1OCCCN1CCOCC1 [Foretinib] (partner 0.25 µM)
Procedure, shortened: as §1

[2] = compound: Cn1nnc2c(C(N)=O)ncn2c1=O [Temozolomide] + CC1(C)CCC(c2ccc(Cl)cc2)=C(CN2CCN(c3ccc(C(=O)NS(=O)(=O)c4ccc(N[C@H](CCN5CCOCC5)CSc5ccccc5)c(S(=O)(=O)C(F)(F)F)c4)cc3)CC2)C1 [Navitoclax] (partner 0.5 µM)
Procedure, shortened: as §1

AZD5582 + Vorinostat = compound: C[C@@H](C(=O)N[C@@H](C1CCCCC1)C(=O)N2CCC[C@H]2C(=O)N[C@@H]3[C@@H](CC4=CC=CC=C34)OCC#CC#CCO[C@@H]5CC6=CC=CC=C6[C@@H]5NC(=O)[C@@H]7CCCN7C(=O)[C@H](C8CCCCC8)NC(=O)[C@H](C)NC)NC [AZD5582] + O=C(CCCCCCC(=O)Nc1ccccc1)NO [Vorinostat] (partner 1 µM)
Procedure, shortened: as §1

Row | Cell Line | relative viability ([1]; first compound 0.2 µM) | relative viability ([1]; first compound 0.6325 µM) | relative viability ([1]; first compound 2 µM) | relative viability ([1]; first compound 6.325 µM) | relative viability ([1]; first compound 20 µM) | relative viability (AZD5582 + Foretinib; first compound 0.001581 µM) | relative viability (AZD5582 + Foretinib; first compound 0.005 µM) | relative viability (AZD5582 + Foretinib; first compound 0.01581 µM) | relative viability (AZD5582 + Foretinib; first compound 0.05 µM) | relative viability ([2]; first compound 0.2 µM) | relative viability ([2]; first compound 0.6325 µM) | relative viability ([2]; first compound 2 µM) | relative viability ([2]; first compound 6.325 µM) | relative viability ([2]; first compound 20 µM) | relative viability (AZD5582 + Vorinostat; first compound 0.001581 µM) | relative viability (AZD5582 + Vorinostat; first compound 0.005 µM) | relative viability (AZD5582 + Vorinostat; first compound 0.01581 µM) | relative viability (AZD5582 + Vorinostat; first compound 0.05 µM)
1 | HCC-827 | 0.56 | 0.593 | 0.286 | 0.532 | 0.136 | 0.936 | 1.06 | 1.04 | 0.999 | 1.07 | 1.07 | 0.992 | 0.984 | 0.129 | 0.771 | 0.892 | 0.694 | 0.822
2 | HOP-62 | 0.395 | 0.445 | 0.399 | 0.424 | 0.367 | 1.01 | 1.11 | 1.06 | 1.05 | 1.05 | 1 | 1.13 | 0.941 | 1.14 | 0.506 | 0.663 | 0.41 | 0.547
3 | IA-LM | – | – | – | – | – | 0.96 | 0.938 | 1.21 | 0.994 | 0.832 | 0.69 | 0.836 | 0.825 | 0.615 | 0.772 | 0.907 | – | 1
4 | LC-2-ad | 0.935 | 0.926 | 0.912 | 0.895 | 0.859 | 0.933 | 1.16 | 0.829 | 0.923 | 0.598 | 0.437 | 0.358 | 0.374 | 0.336 | 0.697 | 0.726 | 0.704 | 0.804
5 | LCLC-97TM1 | 0.222 | 0.161 | 0.234 | 0.199 | 0.173 | 0.913 | 0.94 | 0.908 | 0.958 | 0.546 | 0.443 | 0.49 | 0.445 | 0.512 | 0.34 | 0.62 | 0.159 | 0.343
6 | LCLC-103H | 0.725 | 0.624 | 0.686 | 0.678 | 0.617 | 0.699 | 0.725 | 0.681 | 0.581 | – | – | – | – | – | 0.736 | 0.797 | 0.429 | 0.636
7 | LK-2 | 0.653 | 0.685 | 0.663 | 0.653 | 0.489 | 0.88 | 1.12 | 1.49 | 1.25 | 0.756 | 0.874 | 0.851 | 0.475 | 0.35 | 0.269 | 0.295 | 0.236 | 0.304
8 | LOU-NH91 | 0.731 | 0.806 | 0.793 | 0.806 | 0.7 | 0.858 | 0.861 | 0.934 | 0.949 | 0.395 | 0.738 | 0.702 | 0.596 | 0.361 | 0.867 | 0.872 | 0.794 | 0.842
9 | LU99A | 0.555 | 0.522 | 0.6 | 0.555 | 0.61 | 0.871 | 0.948 | 0.886 | 1.03 | 0.894 | 0.781 | 0.733 | 0.713 | 0.746 | 0.503 | 0.482 | 0.466 | 0.591
